Test results: patent publication US20090285862A1, “METHODS AND COMPOSITION FOR TREATMENT OF INFLAMMATORY PAIN” (priority 2006, published 2009)
Marks after values point to notes of the source that are not given here.

How the values were obtained:
male Wistar rats = assay: open field activity monitor, testing for sedation; format: in vivo, rat; conditions: for open field activity monitor, mean: male, Wistar, rat, in vivo, ip, 20 min
Method: (§1) Experiments were performed on male Wistar rats (wt 150-220 g). Three series of experiments were performed in an observer blinded fashion with saline (negative) controls and GABAPentin (positive) controls. The investigations were in three stages: • 1. a range of doses of aprepitant (an example of a NK antagonist) given alone and in combination with flupiritine (an example of an inhibitor of neuronal excitation) were tested for sedating effects using the open field activity monitor. In this way it was determined which doses of drug and drug combinations could be used to test for analgesic effects without causing sedation; • 2. a range of doses of aprepitant given alone and in combination with flupirtine were tested for the ability to reverse the allodynia effect causes by intraplantar injection of carrageenan; • 3. a range of doses of aprepitant given alone and in combination with flupirtine were tested for the ability to reverse the allodynia and hyperalgesia caused by streptozotocin-induced diabetic neuropathy.
Individual rats (several rats per treatment group) were placed in an open field activity monitor in which the movement of the rat could be monitored remotely by the frequency and number of interruption of infrared beams directed across the box in a grid. The activity in the monitor was measured for periods of 20 minutes in each rat. This was performed in groups of rats that received (1) control injection of saline, (2) GABAPentin 50 mg/kg as the maximum dose of the drug found previously not to be sedating (drug positive control) administered intraperitoneally, or (3) after pharmacological interventions that involve the administration of aprepitant and flupiritine given at a range of doses alone and in combination. If a rat was sedated by a drug or drug combination, the movements recorded were less. Since rates became habituated to the open field monitor, only one experiment was performed on each rat with this test.
Rats are observed in a commercially available open-field arena in which locomotor and exploratory activity can be monitored in darkness by the breaking of infrared beams arranged in a grid pattern over the entire area (MedAssociates Inc. St. Albans, Vt., USA 05478). The observations are started 5 minutes after the intraperitoneal administration of drugs. The total time of observations in all cases is 20 minutes. In order to avoid habituation to the activity monitor, animals are used once in this test for sedation. Rest time is defined as the time spent with no new infrared beam interruptions.

[1] = tested on: carrageenan-induced allodynia; assay: carrageenan paw inflammation, reversal of allodynia assessed with Von Frey hairs; format: in vivo, rat; conditions: rats, IP, non-sedating doses, drug administered alone
Method: as §1
Inflammation involves the release of a number of substances into the tissues following injury. These substances including prostaglandins, bradykinin, inflammatory peptides such as substance P and calcitonin gene related peptide and also a number of cytokines. […] Nociceptive thresholds were measured in groups of rats prior to the intraplantar injection. […]

NCC1(CC(=O)O)CCCCC1 [GABAPentin]
maximum dose found previously not to be sedating (male Wistar rats; rats, intraperitoneally, found previously): 50 mg/kg

C[C@@H](O[C@H]1OCCN(Cc2n[nH]c(=O)[nH]2)[C@H]1c1ccc(F)cc1)c1cc(C(F)(F)F)cc(C(F)(F)F)c1 [aprepitant]
open field activity monitor, mean (male Wistar rats; 6.25 mg/kg): 869.0 | open field activity monitor, mean (male Wistar rats; 12.5 mg/kg): 915.0* | open field activity monitor, mean (male Wistar rats; 25 mg/kg): 964.6* | open field activity monitor, mean (male Wistar rats; 50 mg/kg): 976.6* | open field activity monitor, mean (male Wistar rats; 100 mg/kg): 1058.2* | dose causing no sedating effects (upper limit) (male Wistar rats; rats, drug given alone): ≤ 6.25 mg/kg | antinociception, reversal of carrageenan-induced allodynia (Von Frey) [1]: neither flupirtine or aprepitant given at non-sedating doses caused any antinociception
